Measured values published in ChEMBL document CHEMBL5614421, “Structure-activity relationship study of Pseudellone C as anti-glioma agents by targeting TNF/TNFR signaling pathway” (Eur J Med Chem, 2024).
Calls of active or inactive are those of the source. No cut-off for these calls is given here.

How the values were obtained:
U-87 MG [1] = assay: Induction of apoptosis in human U-87 MG cells assessed as viable cells at 10 uM incubated for 24 hrs by Annexin V-APC/7-AAD staining based flow cytometric analysis (reference value: 94 %); assay type: functional, U-87MG ATCC; conditions: read-out: Activity
LN-229 [2] = assay: Induction of apoptosis in human LN-229 cells assessed as reduction in Bcl-2/Bax ratio at 5 to 20 uM incubated for 24 hrs by Western blot analysis; assay type: functional, cell-based; conditions: dose 5-20 µM
U-87 MG [3] = assay: Induction of apoptosis in human U-87 MG cells assessed as necrotic cells at 20 uM incubated for 24 hrs by Annexin V-APC/7-AAD staining based flow cytometric analysis (reference value: 0.21 %); assay type: functional, U-87MG ATCC
U-87 MG [4] = assay: Induction of apoptosis in human U-87 MG cells assessed as necrotic cells at 10 uM incubated for 24 hrs by Annexin V-APC/7-AAD staining based flow cytometric analysis (reference value: 0.21 %); assay type: functional, U-87MG ATCC
LN-229 [5] = assay: Induction of apoptosis in human LN-229 cells assessed as necrotic cells at 20 uM incubated for 24 hrs by Annexin V-APC/7-AAD staining based flow cytometric analysis (reference value: 0.56 %); assay type: functional
LN-229 [6] = assay: Induction of apoptosis in human LN-229 cells at 20 uM incubated for 24 hrs in presence of R7050 by Annexin V-APC/7-AAD staining based flow cytometric analysis relative to control; assay type: functional
U-87 MG [7] = assay: Induction of apoptosis in human U-87 MG cells assessed as viable cells at 20 uM incubated for 12 hrs by Annexin V-APC/7-AAD staining based flow cytometric analysis (reference value: 94.6 %); assay type: functional, U-87MG ATCC; conditions: read-out: Activity
LN-229 [8] = assay: Antiproliferative activity against human LN-229 cells assessed as inhibition of cell growth incubated for 68 hrs by CCK-8 assay; assay type: functional, cell-based; conditions: LN-229, 68 h
LN-229 [9] = assay: Induction of apoptosis in human LN-229 cells assessed as viable cells at 20 uM incubated for 24 hrs in presence of R7050 by Annexin V-APC/7-AAD staining based flow cytometric analysis (reference value: 92.3 %); assay type: functional; conditions: read-out: Activity
LN-229 [10] = assay: Induction of apoptosis in human LN-229 cells assessed as viable cells at 20 uM incubated for 24 hrs by Annexin V-APC/7-AAD staining based flow cytometric analysis (reference value: 95.4 %); assay type: functional; conditions: read-out: Activity
LN-229 [11] = assay: Induction of apoptosis in human LN-229 cells assessed as viable cells at 20 uM incubated for 12 hrs by Annexin V-APC/7-AAD staining based flow cytometric analysis (reference value: 91.7 %); assay type: functional; conditions: read-out: Activity
U-87 MG [12] = assay: Induction of apoptosis in human U-87 MG cells assessed as early apoptotic cells at 20 uM incubated for 24 hrs by Annexin V-APC/7-AAD staining based flow cytometric analysis (reference value: 0.94 %); assay type: functional, U-87MG ATCC
LN-229 [13] = assay: Induction of apoptosis in human LN-229 cells assessed as early apoptotic cells at 20 uM incubated for 12 hrs by Annexin V-APC/7-AAD staining based flow cytometric analysis (reference value: 2.46 %); assay type: functional
LN-229 [14] = assay: Induction of apoptosis in human LN-229 cells assessed as late apoptotic cells at 5 uM incubated for 24 hrs by Annexin V-APC/7-AAD staining based flow cytometric analysis (reference value: 3.56 %); assay type: functional
LN-229 [15] = assay: Induction of apoptosis in human LN-229 cells assessed as viable cells at 20 uM incubated for 24 hrs by Annexin V-APC/7-AAD staining based flow cytometric analysis (reference value: 92.3 %); assay type: functional; conditions: read-out: Activity
U-87 MG [16] = assay: Induction of apoptosis in human U-87 MG cells at 20 uM incubated for 24 hrs in presence of R7050 by Annexin V-APC/7-AAD staining based flow cytometric analysis relative to control; assay type: functional, U-87MG ATCC
U-87 MG [17] = assay: Induction of apoptosis in human U-87 MG cells assessed as upregulation of cleaved caspase-3 expression incubated for 24 hrs by Western blot analysis; assay type: functional, cell-based; conditions: U-87MG ATCC
U-87 MG [18] = assay: Induction of apoptosis in human U-87 MG cells assessed as late apoptotic cells at 20 uM incubated for 24 hrs by Annexin V-APC/7-AAD staining based flow cytometric analysis (reference value: 7.7 %); assay type: functional, U-87MG ATCC

Q: Which viability at 10 µM (U-87 MG [1]) does the source give for `CCCCCCCNC(=O)[C@H](Cc1c[nH]c2ccccc12)NC(=O)C(C)(c1c[nH]c2ccccc12)c1c[nH]c2ccccc12` here?
A: 89.2%

Q: And the Activity (LN-229 [2])?
A: Active

Q: And the Activity (U-87 MG [3])?
A: 0.47%

Q: And the Activity (U-87 MG [4])?
A: 0.21%

Q: And the Activity (LN-229 [5])?
A: 1.42%

Q: And the Activity (LN-229 [6])?
A: 22.79%

Q: And the viability at 20 µM (U-87 MG [7])?
A: 93.8%

Q: What about the IC50 (LN-229 [8]) of the same molecule?
A: 10.8 µM

Q: What about the viability at 20 µM (LN-229 [9]) of the same molecule?
A: 91.4%

Q: And the viability at 20 µM (LN-229 [10])?
A: 79.8%

Q: And the viability at 20 µM (LN-229 [11])?
A: 92.7%

Q: What about the Activity (U-87 MG [12]) of the same molecule?
A: 2.6%

Q: What about the Activity (LN-229 [13]) of the same molecule?
A: 1.76%

Q: What about the Activity (LN-229 [14]) of the same molecule?
A: 3.7%

Q: And the viability at 20 µM (LN-229 [15])?
A: 66.2%

Q: And the Activity (U-87 MG [16])?
A: 9.37%

Q: What about the Activity (U-87 MG [17]) of the same molecule?
A: Dose-Dependent Effect

Q: And the Activity (U-87 MG [18])?
A: 10%
